≈ marks a conversion by molar mass, not a printed value.
Legend:
[1] = system: BT474 (human breast carcinoma); assay: Methylene Blue Growth Inhibition Assay; assay type: cell-based; details: BT-474, 72 h, BT474, 3 days
Protocol: (§1) Tumor cell lines used in this assay were BT474 (human breast carcinoma) and LNCaP (lymph node metastasis of prostate cancer). HFF (normal human foreskin fibroblast) was also included. All cell lines were cultured in RPMI 1640 media (Invitrogen Corporation 22400-071) containing 10% Fetal Bovine Serum (FBS) at 37° C. in a humidified 5% CO2 incubator. Cells were harvested using trypsin/EDTA, counted using a hemacytometer and plated in 96-well tissue culture plates (Costar 35-3075), 100 uL per well, at the following densities: BT474 15,000 cells/well, LNCaP 5,000 cells/well and HFF 5,000 cells/well. 10 mM stocks of compounds in DMSO were serially diluted in DMSO through nine 3-fold dilutions in 96-well plates (Costar Corning 3363), and stored at −80C. The next day, compound dilutions were thawed and 4 uL of each transferred to 662 uL RPMI 1640+100 ug/mL gentamicin, resulting in twice the final required test concentrations. 100 uL of compounds diluted in RPMI 1640 were added to all cell lines. The final concentration of DMSO in all wells, including controls, was 0.3%. Cells were incubated at 37C, 5% CO2 for 3 days. Medium was removed by aspiration. Cell biomass was estimated by staining cells with 80 uL methylene blue (Sigma M9140, 0.5% in 50:50 ethanol:water), and incubating at room temperature for 1 hour. Stain was aspirated and the plates rinsed by immersion in water, then air-dried. Stain was released from cells by adding 100 uL of solubilizing solution (1% N-lauroyl sarcosine, sodium salt, Sigma L5125, in PBS) and incubating at room temperature for at least 30 minutes. Plates were shaken and the optical density at 620 nm was measured on a microplate reader. Percent inhibition of cell growth was calculated relative to vehicle-treated control wells. Concentration of compound that inhibits 50% of cell growth (IC50) was interpolated using non-linear regression (Levenberg-Marquadt) and the equation, y=Vmax*(1−(x̂n/K̂n+x̂n)))+Y2. [Ref: Mager, M. E. (1972) Data Analysis in Biochemistry and Biophysics. New York: Academic Press]

[2] = system: HFF (normal human foreskin fibroblast); assay: Methylene Blue Growth Inhibition Assay; assay type: cell-based; details: 72 h, 3 days
Protocol: as §1

[3] = system: LNCaP (lymph node metastasis of prostate cancer); assay: Methylene Blue Growth Inhibition Assay; assay type: cell-based; details: Homo sapiens, 72 h, 3 days
Protocol: as §1

[4] = Solubility in 50 mM phosphate buffer at pH 7.4; assay type: physicochemical; details: aqueous buffer

| Compound | IC50 [1] | IC50 [3] | solubility [4] | IC50 [2] |
| --- | --- | --- | --- | --- |
| CCn1c(-c2nonc2N)nc2c(C#CC(C)(C)O)ncc(OCCCNC3CCCC3)c21 [Example 3, 4-(2-(4-amino-1,2,5-oxadiazol-3-yl)-7-{[3-(cyclopentylamino)propyl]oxy}-1-ethyl-1H-imidazo[4,5-c]pyridin-4-yl)-2-methyl-3-butyn-2-ol] | 0.295 µM | 0.052 µM | 210 µM (≈ 95.2 µg/mL) | > 30 µM |
| CCn1c(-c2nonc2N)nc2c(C#CC(C)(C)O)ncc(OCCCNCCc3ccc(OC)cc3)c21 [Compound Z, 4-(2-(4-amino-1,2,5-oxadiazol-3-yl)-1-ethyl-7-{[3-({2-[4-(methyloxy)phenyl]ethyl}amino)propyl]oxy}-1H-imidazo[4,5-c]pyridin-4-yl)-2-methyl-3-butyn-2-ol, reference compound] | – | – | – | 5.51 µM |
| CCn1c(-c2nonc2N)nc2cncc(OC3CCNCC3)c21 [Compound U, 4-[1-ethyl-7-(piperidin-4-yloxy)-1H-imidazo[4,5-c]pyridine-2-yl]-furazan-3-ylamine, reference compound] | – | – | – | 6.47 µM |
| CCn1c(-c2nonc2N)nc2c(C#CC(C)(C)O)ncc(OCCCN)c21 [Compound X, 4-{2-(4-amino-1,2,5-oxadiazol-3-yl)-7-[(3-aminopropyl)oxy]-1-ethyl-1H-imidazo[4,5-c]pyridin-4-yl}-2-methyl-3-butyn-2-ol, reference compound] | – | – | – | 18.1 µM |
| CCn1c(-c2nonc2N)nc2c(C#CC(C)(C)O)ncc(OCCCNCC3CC3)c21 [Example 10, 4-[2-(4-amino-1,2,5-oxadiazol-3-yl)-7-({3-[(cyclopropylmethyl)amino]propyl}oxy)-1-ethyl-1H-imidazo[4,5-c]pyridin-4-yl]-2-methyl-3-butyn-2-ol] | 0.249 µM | 0.066 µM | 140 µM (≈ 61.5 µg/mL) | 17.5 µM |
| CCn1c(-c2nonc2N)nc2c(-c3ccccc3)ncc(OCC3CCCNC3)c21 (stereo not shown) [Compound V, 4-{1-ethyl-4-phenyl-7-[(3-piperidinylmethyl)oxy]-1H-imidazo-[4,5-c]pyridin-2-yl}-1,2,5-oxadiazol-3-amine, reference compound] | – | – | – | 0.57 µM |
| CCn1c(-c2nonc2N)nc2c(C#CC(C)(C)O)ncc(OCC3CCNCC3)c21 [Compound Y, 4-{2-(4-amino-1,2,5-oxadiazol-3-yl)-1-ethyl-7-[(4-piperidinylmethyl)oxy]-1H-imidazo[4,5-c]pyridin-4-yl}-2-methyl-3-butyn-2-ol, reference compound] | – | – | – | > 30 µM |
| CCn1c(-c2nonc2N)nc2c(C#CC(C)(C)O)ncc(OCCC(N)C3CCSCC3)c21 (single isomer, unassigned; (-)) [Example 14, (−)-4-(2-(4-amino-1,2,5-oxadiazol-3-yl)-7-{[3-amino-3-(tetrahydro-2H-thiopyran-4-yl)propyl]oxy}-1-ethyl-1H-imidazo[4,5-c]pyridin-4-yl)-2-methyl-3-butyn-2-ol] | 0.264 µM | 0.056 µM | 151 µM (≈ 73.3 µg/mL) | 19.2 µM |
| CCn1c(-c2nonc2N)nc2c(C#CC(C)(C)O)ncc(OC(CCN)C3CCCCC3)c21 (stereo not shown) [Example 18, 4-[7-[(3-amino-1-cyclohexylpropyl)oxy]-2-(4-amino-1,2,5-oxadiazol-3-yl)-1-ethyl-1H-imidazo[4,5-c]pyridin-4-yl]-2-methyl-3-butyn-2-ol] | 0.051 µM | 0.061 µM | 112 µM (≈ 52.4 µg/mL) | 3.21 µM |
| CCn1c(-c2nonc2N)nc2c(-c3ccccc3)ncc(OCCN3CCOCC3)c21 [Compound T, 4-(1-ethyl-7-([2-(4-morpholinyl)ethyl]oxy)-4-phenyl-1H-imidazo[4,5-c]pyridin-2-yl)-1,2,5-oxadiazol-3-amine, reference compound] | – | – | – | 18.9 µM |
| CCn1c(-c2nonc2N)nc2c(C#CC(C)(C)O)ncc(OCCCCN)c21 [Compound W, 4-[7-[(4-aminobutyl)oxy]-2-(4-amino-1,2,5-oxadiazol-3-yl)-1-ethyl-1H-imidazo[4,5-c]pyridin-4-yl}-2-methyl-3-butyn-2-ol, reference compound] | – | – | – | 22.1 µM |
| CCn1c(-c2nonc2N)nc2c(-c3ccccc3)ncc(OCCCN3CCOCC3)c21 [Compound R, 4-(1-ethyl-7-{[3-(4-morpholinyl)propyl]oxy}-4-phenyl-1H-imidazo[4,5-c]pyridin-2-yl)-1,2,5-oxadiazol-3-amine, reference compound] | – | – | – | 19.9 µM |
| CCn1c(-c2nonc2N)nc2c(-c3ccccc3)ncc(OCC(O)CN3CCOCC3)c21 (stereo not shown) [Compound S, 1-{[2-(4-amino-1,2,5-oxadiazol-3-yl)-1-ethyl-4-phenyl-1H-imidazo[4,5-c]pyridin-7-yl]oxy}-3-(4-morpholinyl)-2-propanol, reference compound] | – | – | – | > 30 µM |

The next lines start with results.

| IC50 [1] | IC50 [3] | solubility [4] | Compound | IC50 [2] |
| --- | --- | --- | --- | --- |
| 0.171 µM | 0.036 µM | 206 µM (≈ 88.1 µg/mL) | CCn1c(-c2nonc2N)nc2c(C#CC(C)(C)O)ncc(OCC[C@@H](N)C(C)C)c21 [Example 4, 4-[7-{[(3R)-3-amino-4-methylpentyl]oxy}-2-(4-amino-1,2,5-oxadiazol-3-yl)-1-ethyl-1H-imidazo[4,5-c]pyridin-4-yl]-2-methyl-3-butyn-2-ol] | 8.1 µM |
| 0.137 µM | 0.031 µM | 209 µM (≈ 86.4 µg/mL) | CCn1c(-c2nonc2N)nc2c(C#CC(C)(C)O)ncc(OCC(C)(C)CN)c21 [Example 7, 4-[7-[(3-amino-2,2-dimethylpropyl)oxy]-2-(4-amino-1,2,5-oxadiazol-3-yl)-1-ethyl-1H-imidazo[4,5-c]pyridin-4-yl]-2-methyl-3-butyn-2-ol] | 26.2 µM |
| 0.202 µM | 0.053 µM | 141 µM (≈ 56.3 µg/mL) | CCn1c(-c2nonc2N)nc2c(C#CC(C)(C)O)ncc(OC[C@@H](C)CN)c21 [Example 8, 4-[7-{[(2S)-3-amino-2-methylpropyl]oxy}-2-(4-amino-1,2,5-oxadiazol-3-yl)-1-ethyl-1H-imidazo[4,5-c]pyridin-4-yl]-2-methyl-3-butyn-2-ol] | 22.4 µM |
| 0.504 µM | 0.071 µM | 119 µM (≈ 47.5 µg/mL) | CCn1c(-c2nonc2N)nc2c(C#CC(C)(C)O)ncc(OCC[C@H](C)N)c21 [Example 9, 4-[7-{[(3S)-3-aminobutyl]oxy}-2-(4-amino-1,2,5-oxadiazol-3-yl)-1-ethyl-1H-imidazo[4,5-c]pyridin-4-yl]-2-methyl-3-butyn-2-ol] | 14.5 µM |
| 0.508 µM | 0.058 µM | 86 µM (≈ 37.8 µg/mL) | CCn1c(-c2nonc2N)nc2c(C#CC(C)(C)O)ncc(OCCCNC3CCC3)c21 [Example 5, 4-(2-(4-amino-1,2,5-oxadiazol-3-yl)-7-{[3-(cyclobutylamino)propyl]oxy}-1-ethyl-1H-imidazo[4,5-c]pyridin-4-yl)-2-methyl-3-butyn-2-ol] | 25.9 µM |
| 0.192 µM | 0.007 µM | 179 µM (≈ 76.5 µg/mL) | CCCC(CCN)Oc1cnc(C#CC(C)(C)O)c2nc(-c3nonc3N)n(CC)c12 (stereo not shown) [Example 16, 4-[7-{[1-(2-aminoethyl)butyl]oxy}-2-(4-amino-1,2,5-oxadiazol-3-yl)-1-ethyl-1H-imidazo[4,5-c]pyridin-4-yl]-2-methyl-3-butyn-2-ol] | 1.08 µM |
| 0.593 µM | 0.066 µM | 27 µM (≈ 11.9 µg/mL) | CCn1c(-c2nonc2N)nc2c(C#CC(C)(C)O)ncc(OC[C@@H](C)CNC3CC3)c21 [Example 6, 4-(2-(4-amino-1,2,5-oxadiazol-3-yl)-7-{[(2S)-3-(cyclopropylamino)-2-methylpropyl]oxy}-1-ethyl-1H-imidazo[4,5-c]pyridin-4-yl)-2-methyl-3-butyn-2-ol] | 11.5 µM |
| 0.022 µM | 0.012 µM | 92 µM (≈ 37.1 µg/mL) | CCn1c(-c2nonc2N)nc2c(C#CC(C)(C)O)ncc(OCC(F)CN)c21 (single isomer, unassigned) [Example 17, 4-[7-[(3-amino-2-(−)-fluoropropyl)oxy]-2-(4-amino-1,2,5-oxadiazol-3-yl)-1-ethyl-1H-imidazo[4,5-c]pyridin-4-yl]-2-methyl-3-butyn-2-ol] | 6.25 µM |
| 0.093 µM | 0.11 µM | 160 µM (≈ 65.8 µg/mL) | CCn1c(-c2nonc2N)nc2c(C#CC(C)(C)O)ncc(OCC3(CN)CC3)c21 [Example 15, 4-[7-({[1-(aminomethyl)cyclopropyl]methyl}oxy)-2-(4-amino-1,2,5-oxadiazol-3-yl)-1-ethyl-1H-imidazo[4,5-c]pyridin-4-yl]-2-methyl-3-butyn-2-ol] | > 30 µM |
